Test results published in patent US8557833B2, “Aminopyrimidines useful as kinase inhibitors” (priority 2005, dated 2013).
Like-named read-outs stand apart in the source and are kept apart here.

Tests used:
[1] = target: T1, Aurora-2 (Aurora A) (Homo sapiens, UniProt O14965); experiment: Aurora-2 (Aurora A) inhibition assay, coupled enzyme; type: biochemical
T1 sequence (O14965 1-403): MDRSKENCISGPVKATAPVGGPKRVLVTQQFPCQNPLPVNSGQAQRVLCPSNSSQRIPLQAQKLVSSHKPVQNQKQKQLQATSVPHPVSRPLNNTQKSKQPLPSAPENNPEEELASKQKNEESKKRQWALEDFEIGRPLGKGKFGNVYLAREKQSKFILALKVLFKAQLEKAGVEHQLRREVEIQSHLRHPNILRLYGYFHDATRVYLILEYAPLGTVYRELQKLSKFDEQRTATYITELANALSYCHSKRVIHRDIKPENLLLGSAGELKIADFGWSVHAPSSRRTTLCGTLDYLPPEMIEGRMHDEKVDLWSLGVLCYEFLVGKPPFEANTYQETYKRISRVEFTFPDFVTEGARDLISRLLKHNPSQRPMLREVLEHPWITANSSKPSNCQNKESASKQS
Experimental: Assays were carried out in a mixture of 100 mM Hepes (pH7.5), 10 mM MgCl2, 1 mM DTT, 25 mM NaCl, 2.5 mM phosphoenolpyruvate, 300 μM NADH, 30 μg/ml pyruvate kinase and 10 μg/ml lactate dehydrogenase. […] Assays were carried out at 30° C. and in the presence of 40 nM Aurora-2.
An assay stock buffer solution was prepared containing all of the reagents listed above, with the exception of Aurora-2 and the test compound of interest. […] The plate was preincubated for 10 minutes at 30° C. and the reaction initiated by addition of 10 μl of Aurora-2. Initial reaction rates were determined with a Molecular Devices SpectraMax Plus plate reader over a 10 minute time course. IC50 and Ki data were calculated from non-linear regression analysis using the Prism software package (GraphPad Prism version 3.0cx for Macintosh, GraphPad Software, San Diego Calif., USA).

[2] = target: Aurora-1 (Aurora B) (Homo sapiens, UniProt Q96GD4); experiment: Aurora-1 (Aurora B) inhibition assay (radiometric); type: biochemical
Aurora-1 (Aurora B), sequence (Q96GD4 whole entry): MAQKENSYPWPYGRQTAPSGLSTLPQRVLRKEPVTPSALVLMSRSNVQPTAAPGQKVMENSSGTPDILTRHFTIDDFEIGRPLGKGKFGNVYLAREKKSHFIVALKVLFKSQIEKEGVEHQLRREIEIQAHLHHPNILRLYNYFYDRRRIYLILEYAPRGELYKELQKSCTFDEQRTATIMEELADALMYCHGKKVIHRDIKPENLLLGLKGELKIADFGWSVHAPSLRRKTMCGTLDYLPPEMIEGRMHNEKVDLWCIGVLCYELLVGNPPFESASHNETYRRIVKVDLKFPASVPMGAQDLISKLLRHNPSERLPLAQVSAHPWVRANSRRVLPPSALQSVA
Experimental: An assay buffer solution was prepared which consisted of 25 mM HEPES (pH 7.5), 10 mM MgCl2, 0.1% BSA and 10% glycerol. […] To 22 μL of the Aurora-B solution, in a 96-well plate, was added 2 μl of a compound stock solution in DMSO and the mixture allowed to equilibrate for 10 minutes at 25° C. The enzyme reaction was initiated by the addition of 16 μl stock [γ-^33P]-ATP solution (˜20 nCi/μL) prepared in assay buffer, to a final assay concentration of 800 μM. The reaction was stopped after 3 hours by the addition of 16 μL 500 mM phosphoric acid and the levels of ^33P incorporation into the peptide substrate were determined by the following method.
A phosphocellulose 96-well plate (Millipore, Cat no. MAPHNOB50) was pre-treated with 100 μL of a 100 mM phosphoric acid prior to the addition of the enzyme reaction mixture (40 μL). The solution was left to soak on to the phosphocellulose membrane for 30 minutes and the plate subsequently washed four times with 200 μL of a 100 mM phosphoric acid. […] Levels of non-enzyme catalyzed background radioactivity were determined by adding 16 μL of the 500 mM phosphoric acid to control wells, containing all assay components (which acts to denature the enzyme), prior to the addition of the [γ-^33P]-ATP solution. Levels of enzyme catalyzed ^33P incorporation were calculated by subtracting mean background counts from those measured at each inhibitor concentration. […] Ki values were calculated from initial rate data by non-linear regression using the Prism software package (Prism 3.0, Graphpad Software, San Diego, Calif.).

[3] = target: JAK-2 (Homo sapiens, UniProt O60674); experiment: JAK2 inhibition assay; type: biochemical; conditions: 12 μM ATP, 15 μM poly(Glu)4Tyr
JAK-2, sequence (O60674 whole entry, species assumed): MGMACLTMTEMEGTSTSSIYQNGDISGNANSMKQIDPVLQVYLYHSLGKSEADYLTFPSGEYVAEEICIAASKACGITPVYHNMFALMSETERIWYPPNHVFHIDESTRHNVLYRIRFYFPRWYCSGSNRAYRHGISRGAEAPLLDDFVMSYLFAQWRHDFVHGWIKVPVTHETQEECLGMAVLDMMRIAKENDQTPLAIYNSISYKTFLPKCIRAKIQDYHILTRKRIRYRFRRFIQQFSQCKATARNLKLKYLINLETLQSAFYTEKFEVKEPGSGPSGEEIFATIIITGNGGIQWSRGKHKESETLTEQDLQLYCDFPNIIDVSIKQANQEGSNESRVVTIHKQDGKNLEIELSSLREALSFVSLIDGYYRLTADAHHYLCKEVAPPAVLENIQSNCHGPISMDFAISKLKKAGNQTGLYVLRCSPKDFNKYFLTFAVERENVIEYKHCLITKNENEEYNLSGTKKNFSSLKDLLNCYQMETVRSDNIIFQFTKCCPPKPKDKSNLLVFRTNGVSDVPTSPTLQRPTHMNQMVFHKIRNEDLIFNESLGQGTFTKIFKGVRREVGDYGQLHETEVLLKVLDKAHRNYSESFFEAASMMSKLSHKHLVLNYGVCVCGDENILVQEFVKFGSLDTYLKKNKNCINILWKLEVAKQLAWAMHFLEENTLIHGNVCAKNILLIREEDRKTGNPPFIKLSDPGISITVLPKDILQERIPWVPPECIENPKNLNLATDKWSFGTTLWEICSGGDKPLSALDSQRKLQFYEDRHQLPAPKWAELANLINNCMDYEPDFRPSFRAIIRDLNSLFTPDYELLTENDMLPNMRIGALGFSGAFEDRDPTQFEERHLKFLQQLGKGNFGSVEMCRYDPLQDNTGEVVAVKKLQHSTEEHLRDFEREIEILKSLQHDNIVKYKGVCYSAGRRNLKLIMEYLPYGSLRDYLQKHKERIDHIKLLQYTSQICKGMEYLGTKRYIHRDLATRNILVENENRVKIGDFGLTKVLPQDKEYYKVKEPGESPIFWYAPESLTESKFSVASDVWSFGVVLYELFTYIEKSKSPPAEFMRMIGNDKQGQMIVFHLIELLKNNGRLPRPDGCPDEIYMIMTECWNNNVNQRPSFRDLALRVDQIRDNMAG

[4] = Microsomal stability assay; type: in vitro ADME; conditions: 5 μM compound, 1 mg/mL liver microsome protein, 37° C., species not given
Experimental: Microsomal stability was monitored by generation of depletion-time profiles in microsomes from a range of species (male CD-1 mouse, male Sprague-Dawley rat, male Beagle dog, male Cynomolgus monkey and pooled mixed gender human). Compound spiking solutions were made up by diluting down the compound stock solution in DMSO (typically 10 mM) to give a solution in acetonitrile (0.5 mM). […].
The reaction was initiated by the addition (250 μL) of the pre-incubated RGS to the pre-incubated microsome/VRT/PB mixture (pre-incubation in both instances was for 10 minutes at 37° C.). Samples were incubated within Eppendorf vials (1.5 ml) on a heater shaker (DPC Micromix 5 (settings; form 20, amplitude 4) modified to be heated, to 37° C., by two plate heaters fixed to the deck and controlled by a Packard Manual Heater) attached to a Multiprobe II HT Ex automated liquid handler. The liquid handler was programmed (WinPREP software) to sample the microsomal incubation mixture after 0, 2, 10, 30 and 60 minutes of incubation and transfer an aliquot (100 μL) to a stop block (96-well block) containing 100 μL of chilled methanol. The % organic in the stop mixture was optimized for analysis by addition of appropriate volumes of aqueous/organic (typically 100 μl of 50:50 methanol:water).
Prior to analysis the stop block was placed on a shaker (DPC Micromix 5; 10 min, form 20, amplitude 5) to precipitate out proteins. The block was then centrifuged (Jouan GR412; 2000 rpm, 15 min, 4° C.). A sample aliquot (200 μL) was then transferred to an analysis block and the block was centrifuged again (Jouan GR412; 2000 rpm, 5 min, 4° C.) prior to being sent for analysis. Depletion profiles were determined by monitoring the disappearance of VRT by liquid chromatography-tandem mass spectrometry (LC-MS/MS). Samples were injected (20 μL; Agilent 1100 liquid chromatographic system equipped with autosampler) onto an analytical column. Mobile phase consisted of Water+0.05% (v/v) formic acid (A) and methanol+0.05% (v/v) formic acid (B).
Running a gradient method optimized for the compound of interest carried out the compound elution from analytical column. The total run time was 6 minutes with a flow rate of 0.35 mL/min. The entire column effluent entered the electrospray ionization source (positive mode) of a Micromass Quattro LC tandem mass spectrometer between 0.5 and 5.9 min of the run. The mass spectrometry was optimized for the compound of interest. All incubations were conducted in duplicate and results were expressed as % parent remaining at either 30 minutes or 60 minutes relative to 0 minutes sample.

[5] = target: T2, FLT-3 (Homo sapiens, UniProt P36888); experiment: FLT-3 inhibition assay, radiometric filter-binding; type: biochemical
T2 sequence (P36888 27-993): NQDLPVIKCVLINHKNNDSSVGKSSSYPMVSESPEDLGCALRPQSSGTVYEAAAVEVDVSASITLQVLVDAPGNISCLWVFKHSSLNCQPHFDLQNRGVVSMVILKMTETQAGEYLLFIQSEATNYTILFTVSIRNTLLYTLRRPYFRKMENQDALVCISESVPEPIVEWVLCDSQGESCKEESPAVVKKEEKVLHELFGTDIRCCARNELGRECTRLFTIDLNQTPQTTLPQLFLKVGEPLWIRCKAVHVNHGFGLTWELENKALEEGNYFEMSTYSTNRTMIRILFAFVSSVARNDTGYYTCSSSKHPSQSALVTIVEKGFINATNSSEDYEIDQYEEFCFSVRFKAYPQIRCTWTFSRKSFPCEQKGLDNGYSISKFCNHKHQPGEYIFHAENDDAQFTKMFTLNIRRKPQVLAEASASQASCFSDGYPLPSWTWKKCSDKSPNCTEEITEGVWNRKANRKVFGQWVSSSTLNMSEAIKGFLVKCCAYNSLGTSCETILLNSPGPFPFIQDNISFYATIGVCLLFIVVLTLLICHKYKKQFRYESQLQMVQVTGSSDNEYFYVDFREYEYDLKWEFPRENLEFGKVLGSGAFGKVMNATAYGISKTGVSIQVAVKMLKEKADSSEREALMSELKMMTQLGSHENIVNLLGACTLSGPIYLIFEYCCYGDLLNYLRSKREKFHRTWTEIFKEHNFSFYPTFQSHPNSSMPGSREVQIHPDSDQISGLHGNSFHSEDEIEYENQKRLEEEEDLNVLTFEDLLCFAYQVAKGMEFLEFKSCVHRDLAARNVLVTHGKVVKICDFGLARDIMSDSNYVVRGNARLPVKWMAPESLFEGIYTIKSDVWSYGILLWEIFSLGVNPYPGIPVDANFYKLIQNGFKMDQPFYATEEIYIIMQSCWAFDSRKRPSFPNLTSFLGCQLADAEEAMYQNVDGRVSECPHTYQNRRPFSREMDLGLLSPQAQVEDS
Experimental: This assay monitors the 33P incorporation into a substrate poly(Glu, Tyr) 4:1 (pE4Y). […] Final substrate concentrations in the assay were 90 μM ATP and 0.5 mg/ml pE4Y (both from Sigma Chemicals, St Louis, Mo.). […] Reactions were carried out at room temperature.
Two assay solutions were prepared. Solution 1 contains 100 mM HEPES (pH 7.5), 10 mM MgCl2, 25 mM NaCl, 1 mg/ml pE4Y and […] (containing 0.3 mCi of [γ-33^P]ATP for each reaction). Solution 2 contains 100 mM HEPES (pH 7.5), 10 mM MgCl2, 25 mM NaCl, 2 mM DTT, 0.02% BSA and 3 nM FLT-3. The assay was run on a 96 well plate by mixing 50 μl each of Solution 1 and […] of the compounds of the present invention. The reaction was initiated with Solution 2. […] All of the reaction volume was then transferred to a filter plate and washed with 5% TCA by a Harvester 9600 from TOMTEC (Hamden, Conn.). The amount of ^33P incorporation into pE4y was analyzed by a Packard Top Count Microplate Scintillation Counter (Meriden, Conn.). The data was fitted using Prism software to get an IC50 or Ki.

[6] = target: N-terminally truncated Abl kinase; experiment: Abl kinase activity inhibition assay, coupled enzyme; type: biochemical; conditions: read-out: Abl (wild) Ki; 110 μM ATP, 30° C., 21 nM Abl kinase
N-terminally truncated Abl kinase, sequence (P00519 28-1130): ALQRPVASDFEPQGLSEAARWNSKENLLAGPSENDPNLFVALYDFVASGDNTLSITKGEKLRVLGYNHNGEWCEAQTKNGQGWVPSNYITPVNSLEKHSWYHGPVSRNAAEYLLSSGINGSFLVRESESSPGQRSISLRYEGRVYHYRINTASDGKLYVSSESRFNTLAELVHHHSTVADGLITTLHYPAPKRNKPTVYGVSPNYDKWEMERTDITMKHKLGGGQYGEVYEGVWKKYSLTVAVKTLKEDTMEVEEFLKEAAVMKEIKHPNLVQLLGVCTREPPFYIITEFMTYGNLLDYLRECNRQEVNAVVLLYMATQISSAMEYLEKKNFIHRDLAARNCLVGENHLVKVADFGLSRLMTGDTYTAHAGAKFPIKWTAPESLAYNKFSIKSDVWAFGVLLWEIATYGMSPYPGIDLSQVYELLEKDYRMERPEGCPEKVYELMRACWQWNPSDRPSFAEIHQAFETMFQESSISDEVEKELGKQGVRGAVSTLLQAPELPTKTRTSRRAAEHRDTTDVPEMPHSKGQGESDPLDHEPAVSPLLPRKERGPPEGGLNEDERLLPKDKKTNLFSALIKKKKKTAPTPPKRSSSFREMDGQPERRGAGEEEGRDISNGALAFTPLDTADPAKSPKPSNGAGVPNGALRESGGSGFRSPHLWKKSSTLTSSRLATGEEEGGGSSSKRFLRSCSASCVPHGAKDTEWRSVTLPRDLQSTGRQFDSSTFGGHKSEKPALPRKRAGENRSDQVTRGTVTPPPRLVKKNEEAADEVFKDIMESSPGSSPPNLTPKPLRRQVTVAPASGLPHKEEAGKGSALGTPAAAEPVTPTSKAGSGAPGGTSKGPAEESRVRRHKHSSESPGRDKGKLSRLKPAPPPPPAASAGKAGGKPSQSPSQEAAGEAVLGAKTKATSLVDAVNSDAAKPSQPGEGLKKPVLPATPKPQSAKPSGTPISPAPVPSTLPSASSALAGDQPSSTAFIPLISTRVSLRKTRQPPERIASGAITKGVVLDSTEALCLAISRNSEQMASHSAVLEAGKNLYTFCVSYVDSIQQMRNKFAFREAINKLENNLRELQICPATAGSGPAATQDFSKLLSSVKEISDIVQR
Experimental: Final concentrations of the components of the coupled enzyme system were 2.5 mM phosphoenolpyruvate, 200 μM NADH, […] pyruvate kinase and 20 μg/ml lactate dehydrogenase.
An assay stock buffer solution was prepared containing all of the reagents listed above with the exception of ATP and the test compound of interest. […] Rates of reaction were obtained using a Molecular Devices Spectramax plate reader (Sunnyvale, Calif.) over 10 min at 30° C. The Ki values were determined from the residual rate data as a function of inhibitor concentration using nonlinear regression (Prism 3.0, Graphpad Software, San Diego, Calif.).

[7] = 800 μM ATP, Kemptide, 25° C., read-out: Aurora B Ki
[8] = 400 μM ATP, 570 μM Kemptide, 30° C., 40 nM Aurora-2, read-out: Aurora A Ki

SMILES	Ki [1]	Ki [2, 7]	Ki [1, 8]	Ki [3]	Microsomal Stability (% remaining after 30 min.) [4]	Microsomal Stability (% remaining after 60 min.) [4]	Ki ([5]; 90 μM ATP, 0.5 mg/ml pE4Y, room temperature, read-out: FLT-3 Ki)	Ki [6]	Ki [2]	Ki [5]
CSc1ccccc1C(=O)Nc1ccc(Sc2nc(Nc3cc(C)[nH]n3)cc(N3CCC3)n2)cc1 [Compound I-23]	1.4 nM	6 nM								
COc1cccc(C(=O)Nc2ccc(Sc3nc(Nc4cc(C)n[nH]4)cc(N4CCC4)n3)cc2)c1 [Compound I-18]		8 nM	0.6 nM	63 nM	89%	58%				
Cc1cc(Nc2cc(N3CCC3)nc(Sc3ccc(NC(=O)c4cccc(F)c4F)cc3)n2)[nH]n1 [Compound I-7]		5.1 nM		41 nM	102%	69%	250 nM	35 nM		
Cc1cc(Nc2cc(N3CCC3)nc(Sc3ccc(NC(=O)c4cccc(Cl)c4Cl)cc3)n2)n[nH]1 [Compound I-9]	0.85 nM					69%			6.5 nM	
Cc1cc(Nc2cc(N3CCC3)nc(Sc3ccc(NC(=O)c4ccccc4Cl)nc3)n2)[nH]n1 [Compound I-24]		18 nM	1 nM	660 nM						700 nM
Cc1cc(Nc2cc(N3CCC3)nc(Sc3ccc(NC(=O)c4cc(F)ccc4F)cc3)n2)[nH]n1 [Compound I-10]		< 25 nM	1.8 nM							
CCc1cc(Nc2cc(N3CCC3)nc(Sc3ccc(NC(=O)c4ccccc4Cl)cc3)n2)n[nH]1 [Compound I-16]	0.56 nM			440 nM	91%	63%			7.5 nM	
